Assay results from patent US20110044952A1, “AMPLIFICATION OF CANCER-SPECIFIC ONCOLYTIC VIRAL INFECTION BY HISTONE DEACETYLASE INHIBITORS” (Ottawa Health Research Institute, priority 2007, published 2011).
Entries after “also recorded” stand apart in the source; their conditions may differ. Like-named read-outs stand apart in the source and are kept apart here.

How the values were obtained:
[1] = test system: DBT glioma cells; conditions: mouse
[2] = test system: VSV-d51-GFP; format: cell-based; conditions: 24 hours
[3] = test system: PC3 cells; format: cell-based
[4] = test system: VSV-d51-GFP; format: cell-based
[5] = test system: primary prostate cancer cells; format: cell-based
[6] = test system: IFN-α; format: cell-based, human
[7] = test system: IFN antiviral response; format: cell-based
[8] = test system: IFN antiviral response pathway; format: cell-based
[9] = test system: VVDD; format: cell-based, vaccinia virus
[10] = test system: VSVΔ51-Luc; set-up: species or system CD1 nude mice; conditions: mouse, in vivo
[11] = test system: VSVΔ51-Luc; set-up: species or system BALB/c mice; conditions: mouse, in vivo, 20 mg/kg
[12] = test system: VSV-d51-GFP
[13] = test system: normal PBMCs
[14] = test system: VSVΔ51 neutralizing antibody; conditions: mouse, in vivo
[15] = test system: semliki forest virus (VA7); assay: Semliki forest virus (VA7) spread and titers in glioma cell lines; format: cell-based
[16] = test system: VVDD; format: cell-based, vaccinia virus; conditions: TSA 0.156 μM 3 hours pre-treatment
[17] = test system: B16-F10-lacZ; assay: B16-F10-lacZ lung metastasis model; format: in vivo, C57BI6 mice; conditions: 0.05 mg TSA i.p. daily to day 4 + 10^7 pfu VVdd i.v. twice; lungs day 14; p<0.05 vs PBS, VVdd or TSA single treatments

Compound | VA7-mediated cytotoxicity (cell viability) [1] | JC-1 green fluorescence (mitochondrial membrane potential) [3] | activation of caspase 9 (immunoblot) [3] | number of Annexin V-positive apoptotic cells (flow cytometry) [3] | visible signs of cell death (phase-contrast microscopy) [3] | VSV replication (GFP-positive cells, fluorescent microscopy) [4] | VSV replication (GFP, flow cytometry) [5] | IFN production (IFN-α ELISA) [6] | induction of MxA mRNA [7] | level of IFN-β mRNA [7] | IRF3 phosphorylation [8] | activation of IRF7, ISG56 and RIG-I [8] | sensitivity of normal tissue to VSV infection [12] | VSV-GFP replication (flow cytometry) [13] | other results
CCC(=O)CCCCC[C@@H]1NC(=O)[C@H]2CCCCN2C(=O)[C@H]([C@@H](C)CC)NC(=O)[C@H](Cc2cn(OC)c3ccccc23)NC1=O [Apicidin] | enhance VA7-mediated cytotoxicity | – | – | – | – | – | – | – | – | – | – | – | – | – | –
IFN-α | – | – | – | – | – | – | – | – | – | – | – | – | – | – | cell permissiveness to viral infection (GFP expression) [2]: decrease cell permissiveness to viral infection
Nc1ccccc1NC(=O)c1ccc(CNC(=O)OCc2cccnc2)cc1 [MS-275] | – | increased JC-1 green fluorescence | significant activation | synergistically enhanced the number of Annexin V-positive apoptotic cells | not able to induce visible signs of cell death | allowed effective VSV replication | allowed effective VSV replication | significantly inhibited IFN production | decreased the induction of MxA mRNA | significantly lower; also recorded: undetectable levels | allowed detection of IRF3 phosphorylation and concomitant degradation | inhibited | specific towards cancer cells | did not increase VSV-GFP replication | replication of VVDD [9]: able to synergize the replication of VVDD in 4T1, B16 and SW620 cells; VSV antigen in tumors (IHC of frozen sections) [10]: more abundant presence of VSV antigen; viral replication in tumor-bearing mice (IVIS) ([10]; ip): more robust viral replication; VSV replication in SW620 tumors ([10]; iv): enhancing effect; viral replication (IVIS) [11]: more robust and persistent viral replication; VSV in spleen and lungs (24 hours): sensitive/permissive to VSV; VSV in spleen and lungs (72 hours): started to clear out; loss of total weight (mouse, in vivo): approximately 15%; survival of mice (mouse, in vivo): all of the mice survived; VSV biodistribution in major organs (mouse, in vivo, iv): comparable results of viral spread and replication in major organs; VSV neutralizing antibody production [14]: Inhibit; VSV-G specific antibody production (miniblot) [14]: Inhibit
O=C(CCCCCCC(=O)Nc1ccccc1)NO [SAHA, suberoylanilide hydroxamic acid] | enhance VA7-mediated cytotoxicity | increased JC-1 green fluorescence | significant activation | synergistically enhanced the number of Annexin V-positive apoptotic cells | not able to induce visible signs of cell death | allowed effective VSV replication | allowed effective VSV replication | significantly inhibited IFN production | decreased the induction of MxA mRNA | significantly lower; also recorded: undetectable levels | allowed detection of IRF3 phosphorylation and concomitant degradation | inhibited | specific towards cancer cells | did not increase VSV-GFP replication | VA7 viral titers (pfu/ml) ([15]; SAHA 5 μM or Apicidin 1 μM 1 hour pre-treatment, MOI 0.01, DBT, CT2A, U251 cells, vs DMSO): enhanced the viral titers; Semliki forest virus spread (GFP photomicrographs) ([15]; SAHA 5 μM or Apicidin 1 μM, DBT cells, MOI 0.01, 30 hours): Enhance
z-VAD-fmk | – | – | – | – | – | – | – | – | – | – | – | – | – | – | activation of apoptosis by VSV+MS-275 or VSV+SAHA (Annexin V) [3]: abrogated activation of apoptosis
CC(/C=C/C(=O)NO)=C\[C@@H](C)C(=O)c1ccc(N(C)C)cc1 [Trichostatin A] | – | – | – | – | – | – | – | – | – | – | – | – | – | – | VVdd spread (GFP photomicrographs) ([16]; MOI 0.1, 48 h): Increases; VVdd titers (pfu/ml) ([16]; MOI 0.1, 72 h): Increases; number of lung metastases [17]: Reduces the Number of Metastases
